We go through one compound from patent US20240239764A1, “SUBSTITUTED AMINOBENZYL HETEROARYL COMPOUNDS AS EGFR AND/OR PI3K INHIBITORS” (Mekanistic Therapeutics, priority 2020, published 2024).

Each structure is given as a SMILES string.

For data set [1], the target named is DNA-PK (Homo sapiens, UniProt P78527). The data set can be described thus: Z′-LYTE / ADAPTA kinase assay, DNA-PK. The note with it: read-out: DNA-PK % Inh. @ 100 nM. It counts as biochemical. An excerpt: (§1) The Z′-LYTE® biochemical assay employs a fluorescence-based, coupled-enzyme format and is based on the differential sensitivity of phosphorylated and non-phosphorylated peptides to proteolytic cleavage (FIG. 6). The peptide substrate is labeled with two fluorophores—one at each end—that make up a FRET pair. In the primary reaction, the kinase transfers the gamma-phosphate of ATP to a single tyrosine, serine or threonine residue in a synthetic FRET-peptide. In the secondary reaction, a site-specific protease recognizes and cleaves non-phosphorylated FRET-peptides. Phosphorylation of FRET-peptides suppresses cleavage by the Development Reagent. […] A ratiometric method, which calculates the ratio (the Emission Ratio) of donor emission to acceptor emission after excitation of the donor fluorophore at 400 nm, is used to quantitate reaction progress.
(§2) A significant benefit of this ratiometric method for quantitating reaction progress is the elimination of well-to-well variations in FRET-peptide concentration and signal intensities. […]
(§3) Both cleaved and uncleaved FRET-peptides contribute to the fluorescence signals and therefore to the Emission Ratio. The extent of phosphorylation of the FRET-peptide can be calculated from the Emission Ratio. […]

Data set [2] addresses EGFR (Homo sapiens, UniProt P00533). The experiment in a line: Z′-LYTE / ADAPTA kinase assay, EGFR. It counts as biochemical.
Description: as §1, §2, §3

Data set [3] addresses PI3Ka (Homo sapiens, UniProt P42336). The experiment in a line: Z′-LYTE / ADAPTA kinase assay, PI3Ka. It counts as biochemical. The text has this:
The Z′-LYTE® biochemical assay employs a fluorescence-based, coupled-enzyme format and is based on the differential sensitivity of phosphorylated and non-phosphorylated peptides to proteolytic cleavage (FIG. 6). The peptide substrate is labeled with two fluorophores—one at each end—that make up a FRET pair. In the primary reaction, the kinase transfers the gamma-phosphate of ATP to a single tyrosine, serine or threonine residue in a synthetic FRET-peptide. In the secondary reaction, a site-specific protease recognizes and cleaves non-phosphorylated FRET-peptides. Phosphorylation of FRET-peptides suppresses cleavage by the Development Reagent. Cleavage disrupts FRET between the donor (i.e., coumarin) and acceptor (i.e., fluorescein) fluorophores on the FRET-peptide, whereas uncleaved, phosphorylated FRET-peptides maintain FRET. A ratiometric method, which calculates the ratio (the Emission Ratio) of donor emission to acceptor emission after excitation of the donor fluorophore at 400 nm, is used to quantitate reaction progress.
A significant benefit of this ratiometric method for quantitating reaction progress is the elimination of well-to-well variations in FRET-peptide concentration and signal intensities. As a result, the assay yields very high Z′-factor values (>0.7) at a low percent phosphorylation.
Both cleaved and uncleaved FRET-peptides contribute to the fluorescence signals and therefore to the Emission Ratio. The extent of phosphorylation of the FRET-peptide can be calculated from the Emission Ratio.
Enzyme: The ADAPTA universal kinase assay is a homogenous, fluorescent based immunoassay for the detection of ADP. In contrast to ATP depletion assays, the ADAPTA assay is extremely sensitive to ADP formation such that a majority of the signal change occurs in the first 10-20% conversion of ATP to ADP. This makes the ADAPTA universal kinase assay ideally suited for use with low activity kinases.
The principle of the ADAPTA universal kinase assay is outlined below. The assay itself can be divided into two phases: a kinase reaction phase, and an ADP detection phase. In the kinase reaction phase, all components required for the kinase reaction are added to the well, and the reaction is allowed to incubate for 60 minutes. After the reaction, a detection solution consisting of a europium labeled anti-ADP antibody, an AlexaFluor® 647 labeled ADP tracer, and EDTA (to stop the kinase reaction) is added to the assay well. ADP formed by the kinase reaction (in the absence of an inhibitor) will displace the Alexa Fluor®647 labeled ADP tracer from the antibody, resulting in a decrease in the TR-FRET signal.
Test Compounds: The Test Compounds are screened in 1% DMSO (final) in the well. For 10 point titrations, 3-fold serial dilutions are conducted from the starting concentration.
Peptide/Kinase Mixtures: All Peptide/Kinase Mixtures are diluted to a 2× working concentration in the appropriate Kinase Buffer.
ATP Solution: All ATP Solutions are diluted to a 4× working concentration in Kinase Buffer (50 mM HEPES pH 7.5, 0.01% BRIJ-35, 10 mM MgCl2, 1 mM EGTA). ATP Km apparent is previously determined using a Z′-LYTE® assay.
Development Reagent Solution: The Development Reagent is diluted in Development Buffer.
10× Novel PKC Lipid Mix: 2 mg/mL Phosphatidyl Serine, 0.2 mg/mL DAG in 20 mM HEPES, pH 7.4, 0.3% CHAPS. For 5 mL 10× Novel PKC Lipid Mix: 1. Add 10 mgs Phosphatidyl Serine (Avanti Polar Lipids Part #8400032C or 840039C) and 1 mg DAG (Avanti Polar Lipids Part #800811 C) to a glass tube. 2. Remove the chloroform from lipid mixture by evaporating to a clear, thin film under a stream of nitrogen. Continuous rotation of the tube, at an angle to ensure maximum surface area of the lipid solution, will promote the thinnest film. 3. Add 5 mLs resuspension buffer, 20 mM HEPES, 0.3% CHAPS, pH 7.4, to the dried lipid mix 4. Heat gently to 50-60° C. for 1-2 minutes and vortex in short intervals until the lipids are dissolved to a clear or slightly hazy solution. […]

Data set [4] is described as follows: Solubility determination (PBS 7.4, SIF, SGF). It counts as physicochemical. The note with it: simulated intestinal fluid (SIF), fassgf or other biorelevant, kinetic from dmso stock, simulated intestinal fluid pH 6.8, 25° C., read-out: Solubility SIF. Here is the method:
Preparation of stock solutions: The stock solutions of test compounds and control compound diclofenac were prepared in DMSO at the concentrations of 10 mM.
Simulated Gastric Fluid (SGF): An aqueous mixture including hydrochloric acid, sodium chloride, and pepsin (pH=1.2).
Simulated Intestinal Fluid (SIF): Prepared by dissolving 6.8 g of KH2PO4 into about 500 mL ultrapure water and adjust the solution to a pH 6.8 with 0.1 M NaOH. 10 g trypsin is then dissolved into ultrapure water. The two solutions are mixed well and diluted with ultrapure water to a final volume of 1000 mL.
485 μL of (SIF, SGF, PBS 7.4, FESSIF, or FESSGF) was added into each vial of the cap-less Solubility Sample plate. The assay was performed in duplicate. Add one stir stick to each vial and seal using a molded PTFE/Silicone plug. […] After completion of the 2 hours, plugs were removed and the stir sticks were removed using a big magnet, the samples from the Solubility Sample plate were transferred into the filter plate. Using the Vacuum Manifold, all the samples were filtered. Aliquot of 5 μL and 5 μL DMSO were taken from the filtrate followed by addition of 490 μL of a mixture of H2O and acetonitrile containing internal standard (1:1). A certain proportion of ultrapure water was used to dilute the diluent according to the peak shape. The dilution factor was changed according to the solubility values and the LC-MS signal response.
Preparation of 300 μM standards (STD): From the 10 mM DMSO STD plate, 6 μL was transferred into the remaining empty plate, and then 194 μL of DMSO was added to that plate to have a STD concentration of 300 μM. From the 300 μM DMSO STD plate, 5 μL DMSO STD and 5 μL SIF was transferred into the remaining empty plate, and then 490 μL of a mixture of H2O and acetonitrile containing internal standard (1:1) was added to that plate to have a final STD concentration of 3 μM. A certain proportion of ultrapure water was used to dilute the diluent according to the peak shape. The concentrations of the standard samples were changed according to the LC-MS signal response.
Procedure for sample analysis: The plate was placed into the well plate autosampler. The samples were evaluated by LC-MS/MS analysis.
Data analysis: All calculations were carried out using Microsoft Excel. The filtrate was analyzed and quantified against a standard of known concentration using LC coupled with mass spectral peak identification and quantitation. Solubility values of the test compound and control compound were calculated as follows: […]
Any value of the compounds that was not within the specified limits was rejected and the experiment was repeated.

Sequence of PI3Ka (P42336 whole entry): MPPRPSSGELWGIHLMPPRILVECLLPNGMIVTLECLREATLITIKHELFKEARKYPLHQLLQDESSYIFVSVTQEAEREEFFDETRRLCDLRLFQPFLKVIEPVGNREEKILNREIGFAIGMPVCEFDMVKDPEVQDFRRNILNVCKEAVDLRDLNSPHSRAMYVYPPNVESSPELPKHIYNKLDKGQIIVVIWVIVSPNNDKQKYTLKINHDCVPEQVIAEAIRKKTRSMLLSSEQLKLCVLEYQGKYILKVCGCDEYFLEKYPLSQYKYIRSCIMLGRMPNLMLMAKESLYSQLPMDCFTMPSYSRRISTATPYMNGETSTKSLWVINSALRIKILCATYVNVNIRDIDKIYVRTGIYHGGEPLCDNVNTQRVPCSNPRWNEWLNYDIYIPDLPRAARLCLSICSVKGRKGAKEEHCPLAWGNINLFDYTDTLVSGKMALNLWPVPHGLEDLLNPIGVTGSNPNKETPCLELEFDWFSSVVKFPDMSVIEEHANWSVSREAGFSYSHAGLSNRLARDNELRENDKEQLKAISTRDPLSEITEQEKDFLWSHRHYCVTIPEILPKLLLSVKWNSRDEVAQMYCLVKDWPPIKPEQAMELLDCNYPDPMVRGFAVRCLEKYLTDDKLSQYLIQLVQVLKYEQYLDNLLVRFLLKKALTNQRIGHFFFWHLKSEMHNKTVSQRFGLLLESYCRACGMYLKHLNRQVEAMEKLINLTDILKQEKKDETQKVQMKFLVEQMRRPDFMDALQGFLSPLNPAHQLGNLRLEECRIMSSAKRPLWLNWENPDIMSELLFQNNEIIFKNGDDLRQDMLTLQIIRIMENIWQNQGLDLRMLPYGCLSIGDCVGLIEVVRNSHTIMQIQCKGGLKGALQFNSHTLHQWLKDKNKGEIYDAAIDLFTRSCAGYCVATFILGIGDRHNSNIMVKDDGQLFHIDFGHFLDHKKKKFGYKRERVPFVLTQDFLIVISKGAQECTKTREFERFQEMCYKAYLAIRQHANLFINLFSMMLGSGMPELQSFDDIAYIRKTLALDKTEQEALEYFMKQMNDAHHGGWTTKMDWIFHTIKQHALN
Sequence of PI3Ka (P27986 whole entry partner): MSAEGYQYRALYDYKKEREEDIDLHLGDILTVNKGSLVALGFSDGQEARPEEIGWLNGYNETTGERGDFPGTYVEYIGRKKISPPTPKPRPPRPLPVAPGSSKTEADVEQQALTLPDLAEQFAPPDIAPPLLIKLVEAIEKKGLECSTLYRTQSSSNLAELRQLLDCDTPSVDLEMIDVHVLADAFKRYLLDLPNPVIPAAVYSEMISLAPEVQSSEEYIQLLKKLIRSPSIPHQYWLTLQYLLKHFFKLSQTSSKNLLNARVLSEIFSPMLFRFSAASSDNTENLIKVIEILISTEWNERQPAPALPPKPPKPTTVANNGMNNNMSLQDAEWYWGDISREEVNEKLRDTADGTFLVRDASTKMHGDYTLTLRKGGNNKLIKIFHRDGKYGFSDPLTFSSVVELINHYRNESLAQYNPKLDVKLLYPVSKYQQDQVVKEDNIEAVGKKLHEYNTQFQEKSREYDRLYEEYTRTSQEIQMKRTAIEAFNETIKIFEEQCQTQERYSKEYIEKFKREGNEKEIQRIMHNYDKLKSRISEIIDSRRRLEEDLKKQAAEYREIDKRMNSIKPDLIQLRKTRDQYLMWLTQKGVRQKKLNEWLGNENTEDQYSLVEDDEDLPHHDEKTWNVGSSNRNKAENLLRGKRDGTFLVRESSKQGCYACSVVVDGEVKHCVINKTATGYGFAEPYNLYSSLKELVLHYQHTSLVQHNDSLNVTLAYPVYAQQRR
Sequence of EGFR (P00533 25-1210): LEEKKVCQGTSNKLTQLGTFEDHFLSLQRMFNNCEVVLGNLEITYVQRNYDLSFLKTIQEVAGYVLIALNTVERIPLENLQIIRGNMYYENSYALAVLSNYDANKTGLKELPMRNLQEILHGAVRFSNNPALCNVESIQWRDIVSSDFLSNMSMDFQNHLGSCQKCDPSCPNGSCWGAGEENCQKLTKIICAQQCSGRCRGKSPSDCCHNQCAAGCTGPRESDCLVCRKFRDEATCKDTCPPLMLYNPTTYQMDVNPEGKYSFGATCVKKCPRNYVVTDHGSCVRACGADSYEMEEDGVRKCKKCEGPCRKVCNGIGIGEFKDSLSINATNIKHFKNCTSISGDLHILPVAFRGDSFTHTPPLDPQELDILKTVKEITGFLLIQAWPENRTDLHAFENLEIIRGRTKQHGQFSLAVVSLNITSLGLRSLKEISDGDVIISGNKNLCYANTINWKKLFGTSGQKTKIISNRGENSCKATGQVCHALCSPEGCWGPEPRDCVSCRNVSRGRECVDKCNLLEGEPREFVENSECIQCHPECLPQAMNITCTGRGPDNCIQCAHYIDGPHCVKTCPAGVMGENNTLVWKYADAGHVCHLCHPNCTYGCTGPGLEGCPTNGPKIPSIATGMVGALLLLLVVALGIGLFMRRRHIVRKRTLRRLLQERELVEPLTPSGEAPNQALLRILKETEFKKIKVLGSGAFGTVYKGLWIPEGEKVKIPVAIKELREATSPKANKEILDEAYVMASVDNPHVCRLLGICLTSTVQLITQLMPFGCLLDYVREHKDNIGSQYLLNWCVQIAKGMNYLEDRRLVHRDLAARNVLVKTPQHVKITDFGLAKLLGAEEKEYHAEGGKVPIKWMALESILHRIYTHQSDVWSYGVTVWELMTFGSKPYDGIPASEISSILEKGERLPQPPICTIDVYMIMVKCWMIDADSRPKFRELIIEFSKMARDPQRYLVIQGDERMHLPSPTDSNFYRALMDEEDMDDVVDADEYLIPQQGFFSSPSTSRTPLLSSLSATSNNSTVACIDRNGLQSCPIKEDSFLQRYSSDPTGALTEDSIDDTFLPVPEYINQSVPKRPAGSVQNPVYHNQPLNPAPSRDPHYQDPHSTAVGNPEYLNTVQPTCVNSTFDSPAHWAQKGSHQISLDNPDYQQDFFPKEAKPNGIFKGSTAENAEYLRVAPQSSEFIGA

As for `CS(=O)(=O)Nc1cncc(-c2ccc3ncnc(NCc4ccccc4)c3c2)c1` [Comparative Compound 3, reference compound], the inhibition at 0.1 µM in data set [1] is above 90%; in data set [2] (read-out: EGFR % Inh. @ 100 nM), above 90%; in data set [3] (read-out: PI3Ka % Inh. @100 nM), 80 to 90%. Further, the 50% inhibitory concentration (IC50) in data set [2] and in data set [3] was 20 to 200 nM in each case. Further, the solubility (in general, how much of the substance goes into solution per volume) at 2 h in data set [4] was at most 20 µM.
